Organism: Rattus norvegicus
Test: Open TG-GATES - Regimen: Daily Repeat
Assay type: toxicity, organism-based, Sprague-Dawley
Set-up: regimen Daily Repeat, gender Male, age 6 weeks
Conditions: in vivo, po, 100 mg/kg, route gavage, dose level Low; for APTT / Bas / Eos / Fbg / Hb / Ht / Lym / MCH / MCHC / MCV / Mono / Neu / PT / Plat / RBC / Ret / WBC: tissue Blood; for KIDNEY_L / KIDNEY_R / KIDNEY_TOTAL: tissue Kidney; for LIVER: tissue Liver; for A/G / ALP / ALT / AST / BUN / CRE / Ca / Cl / DBIL / GLC / IP / K / LDH / Na / PL / RALB / TBIL / TC / TG / TP / gamma-GTP: tissue Plasma

Work on `CC[C@@H](CO)NCCN[C@@H](CC)CO` [ETHAMBUTOL] yielded a TERMINAL_BW (72 h, time 3 day) of 243.1 g, an APTT (72 h, time 3 day) of 21.1 s and a Bas (72 h, time 3 day) of 0%. It also gave an Eos (72 h, time 3 day) of 1%, a Fbg (72 h, time 3 day) of 341.6 mg/dL and a Hb (72 h, time 3 day) of 13.4 g/dL. The Ht (72 h, time 3 day) was 38.6%, the Lym (72 h, time 3 day) was 80.4% and the MCH (72 h, time 3 day) was 21.4 pg. The MCHC (72 h, time 3 day) was 34.9%, the MCV (72 h, time 3 day) was 61.5 fL and the Mono (72 h, time 3 day) was 3%. For the same compound, the Neu (72 h, time 3 day) was 14.2%, the PT (72 h, time 3 day) was 15.8 s and the Plat (72 h, time 3 day) was 123.9 x10_4/uL. For the same compound, the RBC (72 h, time 3 day) was 627.8 x10_4/ul, the Ret (72 h, time 3 day) was 6.4% and the WBC (72 h, time 3 day) was 92.5 x10_2/uL. The KIDNEY_L (72 h, time 3 day) was 1.1 g, the KIDNEY_R (72 h, time 3 day) was 1 g and the KIDNEY_TOTAL (72 h, time 3 day) was 2.1 g. It also gave an LIVER (72 h, time 3 day) of 12 g, an A/G (72 h, time 3 day) of 1.2 and an ALP (72 h, time 3 day) of 1628.8 IU/L. The ALT (72 h, time 3 day) was 45.2 IU/L, the AST (72 h, time 3 day) was 72.4 IU/L and the BUN (72 h, time 3 day) was 17.4 mg/dL. The CRE (72 h, time 3 day) was 0.2 mg/dL, the Ca (72 h, time 3 day) was 10.8 mg/dL and the Cl (72 h, time 3 day) was 107 meq/L. For the same compound, the DBIL (72 h, time 3 day) was 0 mg/dL, the GLC (72 h, time 3 day) was 187 mg/dL and the IP (72 h, time 3 day) was 7.2 mg/dL. The K (72 h, time 3 day) was 4.1 meq/L, the LDH (72 h, time 3 day) was 158.4 IU/L and the Na (72 h, time 3 day) was 140.8 meq/L. It also gave a PL (72 h, time 3 day) of 156.4 mg/dL, an RALB (72 h, time 3 day) of 3.1 g/dL and a TBIL (72 h, time 3 day) of 0.016 mg/dL. For the same compound, the TC (72 h, time 3 day) was 82.2 mg/dL, the TG (72 h, time 3 day) was 117.8 mg/dL and the TP (72 h, time 3 day) was 5.6 g/dL. The gamma-GTP (72 h, time 3 day) was 1.6 IU/L, the TERMINAL_BW ([…], time 7 day) was 272 g and the TERMINAL_BW ([…], time 14 day) was 312.5 g. It also gave a TERMINAL_BW ([…], time 28 day) of 351.2 g, an APTT ([…], time 7 day) of 22.4 s and a Bas ([…], time 7 day) of 0%. It also gave an Eos ([…], time 7 day) of 0.8%, a Fbg ([…], time 7 day) of 340.4 mg/dL and a Hb ([…], time 7 day) of 13.9 g/dL. The Ht ([…], time 7 day) was 40.1%, the Lym ([…], time 7 day) was 80.6% and the MCH ([…], time 7 day) was 21.4 pg. The MCHC ([…], time 7 day) was 34.6%, the MCV ([…], time 7 day) was 62 fL and the Mono ([…], time 7 day) was 2.6%. It also gave a Neu ([…], time 7 day) of 14.8%, a PT ([…], time 7 day) of 15.8 s and a Plat ([…], time 7 day) of 125.3 x10_4/uL. For the same compound, the RBC ([…], time 7 day) was 646.8 x10_4/ul, the Ret ([…], time 7 day) was 5.9% and the WBC ([…], time 7 day) was 109.9 x10_2/uL. The APTT ([…], time 14 day) was 22.7 s, the Bas ([…], time 14 day) was 0% and the Eos ([…], time 14 day) was 1.2%. The Fbg ([…], time 14 day) was 318.2 mg/dL, the Hb ([…], time 14 day) was 14 g/dL and the Ht ([…], time 14 day) was 40.9%. It also gave a Lym ([…], time 14 day) of 80%, an MCH ([…], time 14 day) of 20.5 pg and an MCHC ([…], time 14 day) of 34.2%. It also gave an MCV ([…], time 14 day) of 60 fL, a Mono ([…], time 14 day) of 2.6% and a Neu ([…], time 14 day) of 15%. For the same compound, the PT ([…], time 14 day) was 16.9 s, the Plat ([…], time 14 day) was 110.4 x10_4/uL and the RBC ([…], time 14 day) was 681.8 x10_4/ul. It also gave a Ret ([…], time 14 day) of 4.5%, a WBC ([…], time 14 day) of 127.4 x10_2/uL and an APTT ([…], time 28 day) of 23.2 s. The Bas ([…], time 28 day) was 0%, the Eos ([…], time 28 day) was 1% and the Fbg ([…], time 28 day) was 288.8 mg/dL. For the same compound, the Hb ([…], time 28 day) was 14.5 g/dL, the Ht ([…], time 28 day) was 41.9% and the Lym ([…], time 28 day) was 81.2%. For the same compound, the MCH ([…], time 28 day) was 18.3 pg, the MCHC ([…], time 28 day) was 34.7% and the MCV ([…], time 28 day) was 52.9 fL. For the same compound, the Mono ([…], time 28 day) was 2%, the Neu ([…], time 28 day) was 14% and the PT ([…], time 28 day) was 16.6 s. The Plat ([…], time 28 day) was 94.5 x10_4/uL, the RBC ([…], time 28 day) was 792.8 x10_4/ul and the Ret ([…], time 28 day) was 2.6%. The WBC ([…], time 28 day) was 137.8 x10_2/uL, the KIDNEY_L ([…], time 7 day) was 1.1 g and the KIDNEY_R ([…], time 7 day) was 1.1 g. The KIDNEY_TOTAL ([…], time 7 day) was 2.3 g, the KIDNEY_L ([…], time 14 day) was 1.3 g and the KIDNEY_R ([…], time 14 day) was 1.3 g. It also gave a KIDNEY_TOTAL ([…], time 14 day) of 2.6 g, a KIDNEY_L ([…], time 28 day) of 1.3 g and a KIDNEY_R ([…], time 28 day) of 1.4 g. It also gave a KIDNEY_TOTAL ([…], time 28 day) of 2.7 g, an LIVER ([…], time 7 day) of 13.7 g and an LIVER ([…], time 14 day) of 14.2 g. For the same compound, the LIVER ([…], time 28 day) was 15.1 g, the A/G ([…], time 7 day) was 1.1 and the ALP ([…], time 7 day) was 1577.2 IU/L. It also gave an ALT ([…], time 7 day) of 42.2 IU/L, an AST ([…], time 7 day) of 67.2 IU/L and a BUN ([…], time 7 day) of 18.2 mg/dL. For the same compound, the CRE ([…], time 7 day) was 0.2 mg/dL, the Ca ([…], time 7 day) was 10.4 mg/dL and the Cl ([…], time 7 day) was 106.6 meq/L. The DBIL ([…], time 7 day) was 0 mg/dL, the GLC ([…], time 7 day) was 185.4 mg/dL and the IP ([…], time 7 day) was 7.6 mg/dL. It also gave a K ([…], time 7 day) of 4 meq/L, an LDH ([…], time 7 day) of 154.6 IU/L and a Na ([…], time 7 day) of 141.8 meq/L. It also gave a PL ([…], time 7 day) of 147.6 mg/dL, an RALB ([…], time 7 day) of 3 g/dL and a TBIL ([…], time 7 day) of 0.01 mg/dL. The TC ([…], time 7 day) was 74.8 mg/dL, the TG ([…], time 7 day) was 113.6 mg/dL and the TP ([…], time 7 day) was 5.8 g/dL. The gamma-GTP ([…], time 7 day) was 2.4 IU/L, the A/G ([…], time 14 day) was 1.2 and the ALP ([…], time 14 day) was 1502.6 IU/L. It also gave an ALT ([…], time 14 day) of 47.4 IU/L, an AST ([…], time 14 day) of 75.2 IU/L and a BUN ([…], time 14 day) of 19.6 mg/dL. For the same compound, the CRE ([…], time 14 day) was 0.2 mg/dL, the Ca ([…], time 14 day) was 10.3 mg/dL and the Cl ([…], time 14 day) was 106.4 meq/L. The DBIL ([…], time 14 day) was 0 mg/dL, the GLC ([…], time 14 day) was 195.4 mg/dL and the IP ([…], time 14 day) was 6.8 mg/dL. It also gave a K ([…], time 14 day) of 4.1 meq/L, an LDH ([…], time 14 day) of 144.6 IU/L and a Na ([…], time 14 day) of 141 meq/L. The PL ([…], time 14 day) was 132.8 mg/dL, the RALB ([…], time 14 day) was 3 g/dL and the TBIL ([…], time 14 day) was 0.014 mg/dL. The TC ([…], time 14 day) was 67 mg/dL, the TG ([…], time 14 day) was 81 mg/dL and the TP ([…], time 14 day) was 5.5 g/dL. For the same compound, the gamma-GTP ([…], time 14 day) was 2 IU/L, the A/G ([…], time 28 day) was 1.1 and the ALP ([…], time 28 day) was 1233.8 IU/L. For the same compound, the ALT ([…], time 28 day) was 47.4 IU/L, the AST ([…], time 28 day) was 77 IU/L and the BUN ([…], time 28 day) was 20.8 mg/dL. It also gave a CRE ([…], time 28 day) of 0.2 mg/dL, a Ca ([…], time 28 day) of 9.8 mg/dL and a Cl ([…], time 28 day) of 106.4 meq/L. For the same compound, the DBIL ([…], time 28 day) was 0 mg/dL, the GLC ([…], time 28 day) was 195.6 mg/dL and the IP ([…], time 28 day) was 6 mg/dL. It also gave a K ([…], time 28 day) of 3.9 meq/L, an LDH ([…], time 28 day) of 143.6 IU/L and a Na ([…], time 28 day) of 141.8 meq/L. The PL ([…], time 28 day) was 133 mg/dL, the RALB ([…], time 28 day) was 2.9 g/dL and the TBIL ([…], time 28 day) was 0.026 mg/dL. For the same compound, the TC ([…], time 28 day) was 76.8 mg/dL, the TG ([…], time 28 day) was 62.4 mg/dL and the TP ([…], time 28 day) was 5.7 g/dL. The gamma-GTP ([…], time 28 day) was 1.8 IU/L.
